The OligoGym collection
After the bases stand the sugars from the 5' end (letter, count) and the backbone: PS all phosphorothioate, else s phosphorothioate and o phosphodiester by linkage. Methylation of C is not given here. l = locked nucleic acid (LNA); d = 2'-deoxy (DNA)

Target: SNHG14
Conditions: ASO
[1] = Mouse Primary Neuronal Cell, 0.005 µM

Sequence	target mRNA inhibition (Human Neuronal Cell, 7.5 µM) [%]	target mRNA inhibition (Human Neuronal Cell, 0.2 µM) [%]	target mRNA inhibition (Human Neuronal Cell, 1 µM) [%]	other results
AAATTATTTATACACCATCA (sugars ldddlldddddddldldlll, PS)	67	–	–	–
AAATTATTTATACACCATCA (sugars ldlllddddddddlddllll, PS)	68	–	–	–
AAATTATTTATACACCATCA (sugars ldllllddddddddldldll, PS)	70	–	–	–
AAATTTCTCAACCTAAATTT (sugars l2 d14 l4, PS)	–	-9	2	–
AACATGTAATTTCCAT (sugars l2 d10 l4, PS)	–	31	27	–
AACTCTCACTGTAACT (sugars l4 d10 l2, PS)	–	41	53	–
AAGAAACACCCTTCCA (sugars l2 d10 l4, PS)	–	40	54	–
AAGATCATTCTCAACA (sugars l4 d10 l2, PS)	–	60	67	–
AAGATCATTCTCAACAAT (sugars l2 d2 l2 d6 l6, PS)	47	–	–	–
AAGATCATTCTCAACAAT (sugars lllldlddddddldllll, PS)	-6	–	–	–
AATTATTTATACACCATCAT (sugars lllddllddddddldlldll, PS)	56	–	–	–
AATTATTTATACACCATCAT (sugars llllddldddddddldddll, PS)	61	–	–	–
AATTTTTTTCTTACTATCTT (sugars ldllddddddddddllddll, PS)	44	–	–	–
AATTTTTTTCTTACTATCTT (sugars lldllldddddddddldlll, PS)	57	–	–	–
ACACATTATATTTAAACTA (sugars l3 d13 l3, PS)	–	8	-2	–
ACATCTCATACTTGCTT (sugars l2 d11 l4, PS)	–	-4	7	target mRNA inhibition (Human Neuronal Cell, 5 µM): 9%; target mRNA inhibition [1]: 96%
ACATGTCCCTTTATATT (sugars l2 d13 l2, PS)	–	-12	8	target mRNA inhibition (Human Neuronal Cell, 5 µM): 21%; target mRNA inhibition [1]: 85.2%
ACATGTCCCTTTATATT (sugars l4 d11 l2, PS)	–	-15	-4	target mRNA inhibition (Human Neuronal Cell, 5 µM): 9%; target mRNA inhibition [1]: 83.7%
ACCAATTATACTTACAA (sugars l3 d11 l3, PS)	–	21	52	–
ACCACCTAAGACCTCA (sugars l2 d11 l3, PS)	–	45	44	–
ACCACTGATTTCCTTA (sugars l2 d10 l4, PS)	–	50	63	–
ACCCATTTCTAACATT (sugars l4 d10 l2, PS)	–	29	40	–

Sequence	target mRNA inhibition (Human Neuronal Cell, 7.5 µM) [%]	target mRNA inhibition (Human Neuronal Cell, 0.2 µM) [%]	target mRNA inhibition (Human Neuronal Cell, 1 µM) [%]	other results
ACCTACATCTCATACT (sugars l2 d12 l2, PS)	–	-16	8	target mRNA inhibition (Human Neuronal Cell, 5 µM): 0%; target mRNA inhibition [1]: 85.7%
ACCTACATCTCATACTT (sugars l2 d11 l4, PS)	–	–	–	target mRNA inhibition [1]: 94.2%
ACCTGTAATACTTCTT (sugars l4 d10 l2, PS)	–	48	46	–
ACTCCTAAGAATTACA (sugars l4 d10 l2, PS)	–	34	34	–
ACTCTCACTGTAACTT (sugars l3 d10 l3, PS)	–	36	44	–
ACTCTGCAATACACCAA (sugars l1 d1 l2 d10 l3, PS)	63	–	–	–
ACTCTGCAATACACCAA (sugars ldddldddddddldlll, PS)	66	–	–	–
ACTGATTTCCTTAAAC (sugars l4 d10 l2, PS)	–	24	52	–
ACTGTTTATACCCTTTC (sugars l1 d2 l1 d9 l4, PS)	45	–	–	–
ACTGTTTATACCCTTTC (sugars l2 d10 l1 d2 l2, PS)	60	–	–	–
ACTGTTTATACCCTTTC (sugars ldddlddddddddldll, PS)	55	–	–	–
ACTGTTTATACCCTTTCC (sugars l1 d11 l1 d3 l2, PS)	56	–	–	–
ACTTTACTGCCATAATC (sugars l3 d11 l3, PS)	–	40	33	–
AGATCATTCTCAACAATTA (sugars ldlddldddddddllldll, PS)	50	–	–	–
AGCAACATTATTAACCAC (sugars l2 d1 l1 d9 l5, PS)	61	–	–	–
AGCAACATTATTAACCAC (sugars ldllldddddddlldlll, PS)	26	–	–	–
AGCAACATTATTAACCACC (sugars l2 d1 l2 d12 l2, PS)	63	–	–	–
AGCAACATTATTAACCACC (sugars lddddlddddddlldddll, PS)	45	–	–	–
AGCACATATACCATCA (sugars l4 d10 l2, PS)	–	51	56	–
AGCATTCAACCCTAATC (sugars l4 d11 l2, PS)	–	52	50	–
AGCTCCATATTTAAAT (sugars l4 d10 l2, PS)	–	10	-9	–
AGTTCTACTATACTTTC (sugars l3 d11 l3, PS)	57	–	–	–

Sequence	target mRNA inhibition (Human Neuronal Cell, 7.5 µM) [%]	target mRNA inhibition (Human Neuronal Cell, 0.2 µM) [%]	target mRNA inhibition (Human Neuronal Cell, 1 µM) [%]	other results
AGTTCTACTATACTTTCC (sugars l1 d4 l1 d10 l2, PS)	49	–	–	–
AGTTCTACTATACTTTCC (sugars l1 d15 l2, PS)	11	–	–	–
ATAAGCTTACCTCATA (sugars l2 d10 l4, PS)	–	62	68	–
ATAATCCCATACATCTA (sugars l3 d11 l3, PS)	–	60	69	–
ATACACAGCACATATT (sugars l2 d10 l4, PS)	–	29	43	–
ATATAAGCTTACCTCA (sugars l4 d10 l2, PS)	–	56	68	–
ATATTGATTCAATTCCC (sugars l1 d1 l3 d10 l2, PS)	70	–	–	–
ATATTGATTCAATTCCC (sugars l1 d2 l1 d7 l6, PS)	51	–	–	–
ATATTGATTCAATTCCC (sugars l1 d3 l1 d8 l4, PS)	67	–	–	–
ATCATCAGTTACATCA (sugars l4 d10 l2, PS)	–	62	63	–
ATCATTCTCAACAATTA (sugars l4 d7 l1 d1 l4, PS)	53	–	–	–
ATCATTCTCAACAATTAA (sugars l4 d8 l6, PS)	44	–	–	–
ATCATTCTCAACAATTAAA (sugars l4 d1 l1 d8 l5, PS)	49	–	–	–
ATCATTTCATATTACTA (sugars l3 d11 l3, PS)	–	43	56	–
ATCCTGTTAATACCAT (sugars l2 d10 l4, PS)	–	45	39	–
ATCTCATGACCACCTAA (sugars l1 d12 l4, PS)	48	–	–	–
ATCTCATGACCACCTAA (sugars ldlllddddddddldll, PS)	66	–	–	–
ATCTGAATCAAACCTT (sugars l2 d10 l4, PS)	–	45	45	–
ATCTTTCCATTTATTTCC (sugars l3 d12 l3, PS)	–	52	56	–
ATCTTTCCATTTATTTCCA (sugars ldddlddddddddldddll, PS)	42	–	–	–
ATCTTTCCATTTATTTCCAT (sugars lddlddddddddddddldll, PS)	40	–	–	–
ATGCTTCTAACTAACA (sugars l4 d10 l2, PS)	–	25	46	–

Sequence	target mRNA inhibition (Human Neuronal Cell, 7.5 µM) [%]	target mRNA inhibition (Human Neuronal Cell, 0.2 µM) [%]	target mRNA inhibition (Human Neuronal Cell, 1 µM) [%]	other results
ATTCAACCCTAATCAC (sugars l2 d10 l4, PS)	–	16	26	–
ATTGATTCAATTCCCTT (sugars l1 d1 l2 d9 l4, PS)	67	–	–	–
ATTGATTCAATTCCCTT (sugars l3 d10 l1 d1 l2, PS)	70	–	–	–
ATTGATTCAATTCCCTT (sugars ldddldddddddlldll, PS)	57	–	–	–
ATTGATTCAATTCCCTT (sugars lddldddddddlldlll, PS)	61	–	–	–
ATTGATTCAATTCCCTT (sugars lddlldddddddlldll, PS)	59	–	–	–
ATTTAAATTTCCAAACATT (sugars l2 d13 l4, PS)	–	11	-17	–
ATTTACACTTAATTATACTT (sugars ldlllldddddddldlddll, PS)	45	–	–	–
ATTTACACTTAATTATACTT (sugars llddlllddddddlddllll, PS)	38	–	–	–
ATTTCATTAAGTCACC (sugars l2 d10 l4, PS)	–	46	59	–
ATTTTTTTCTTACTATCTTC (sugars ldlllddddddddlddddll, PS)	56	–	–	–
CAAAGATCATTCTCAACA (sugars l1 d1 l2 d8 l6, PS)	58	–	–	–
CAAAGATCATTCTCAACA (sugars lllldldddddddlddll, PS)	63	–	–	–
CAAATACAGATTATCC (sugars l2 d10 l4, PS)	–	49	59	–
CAACATTATTAACCACCTT (sugars l3 d1 l1 d11 l3, PS)	61	–	–	–
CAACATTATTAACCACCTTA (sugars l1 d2 l2 d13 l2, PS)	47	–	–	–
CAACATTATTAACCACCTTA (sugars l4 d10 l1 d2 l3, PS)	55	–	–	–
CAACATTATTAACCACCTTA (sugars lddddllddddddddlddll, PS)	47	–	–	–
CACATTATATTTAAACTAT (sugars l2 d13 l4, PS)	–	6	14	–
CACTGATTTCCTTAAAC (sugars l4 d11 l2, PS)	–	40	43	–
CATCTGCTACATATTC (sugars l4 d10 l2, PS)	–	49	58	–
